Laboratory results published in ChEMBL document CHEMBL1128104, “A bis-[N-3-(1-hydroxy-1-methyl-ethyl)-benzyl)-cyclic urea as a HIV protease inhibitor” (Bioorg Med Chem Lett, 1995).

What was measured:
[1] = Tested for t1/2 upon intravenous administration of 5.0 mg/Kg dose in dog; assay type: ADME, organism-based, Canis lupus familiaris; conditions: in vivo
[2] = Bioavailability in dog (dose 10.0 mg/kg p.o.); assay type: ADME, organism-based, Canis lupus familiaris; conditions: in vivo, po
[3] = Tested for volume of distribution at steady state upon intravenous administration of 5.0 mg/Kg dose in rat; assay type: ADME, organism-based; conditions: in vivo, read-out: Vss
[4] = Tested for systemic clearance upon intravenous administration of 5.0 mg/Kg dose in rat; assay type: ADME, organism-based; conditions: in vivo
[5] = Tested for systemic clearance upon intravenous administration of 5.0 mg/Kg dose in dog; assay type: ADME, organism-based, Canis lupus familiaris; conditions: in vivo
[6] = Cmax in plasma was determined upon peroral administration of 10.0 mg/Kg dose in dog; assay type: ADME, organism-based, Canis lupus familiaris; set-up: dose 10 mg/Kg, route oral; conditions: po
[7] = Tested for volume of distribution at steady state upon intravenous administration of 5.0 mg/Kg dose in dog; assay type: ADME, organism-based, Canis lupus familiaris; conditions: in vivo, read-out: Vss
[8] = Cmax in plasma was determined upon peroral administration of 10.0 mg/Kg dose in rat; assay type: ADME, organism-based; set-up: dose 10 mg/Kg, route oral; conditions: po
[9] = Tested for t1/2 upon intravenous administration of 5.0 mg/Kg dose in rat; assay type: ADME, organism-based; conditions: in vivo
[10] = Tested for t1/2 upon peroral administration of 10.0 mg/Kg dose in rat; assay type: ADME, organism-based; conditions: in vivo, po
[11] = biological target: Human immunodeficiency virus type 1 protease (Human immunodeficiency virus 1, UniProt Q72874); assay: Tested for inhibitory activity against HIV protease
[12] = tested on: Human immunodeficiency virus 1; assay: Tested for the ability to block cleavage of HIV-1 gag polyprotein using [35S]methionine-labeled ligand; assay type: functional, organism-based
[13] = tested on: Human immunodeficiency virus; assay: Ability to inhibit p24 mutant variant […] was determined; assay type: functional; conditions: Human immunodeficiency virus 1
[14] = tested on: Human immunodeficiency virus; assay: Ability to inhibit p24 mutant variant V82F was determined; assay type: functional; conditions: Human immunodeficiency virus 1
[15] = tested on: Human immunodeficiency virus; assay: Ability to inhibit p24 mutant variant V82F/[…] was determined; assay type: functional; conditions: Human immunodeficiency virus 1
[16] = tested on: Human immunodeficiency virus; assay: Ability to inhibit p24 mutant variant HxB2 wild type was determined; assay type: functional; conditions: Human immunodeficiency virus 1
[17] = tested on: Lymphocytoid cell line; assay: Tested for cytotoxicity (concentration required to reduce 50% of the viable cell population) in presence of metabolizable tetrazolium dye in human lymphocytoid cell lines MT-2 or MT-4 using the RF strain of HIV-1; assay type: functional; conditions: read-out: TC50 (the source's name)
[18] = tested on: Lymphocytoid cell line; assay: Tested for the ability to inhibit viral replication (HIV-1 RNA) in human lymphocytoid cell lines MT-2 or MT-4 using the RF strain of HIV-1; assay type: functional
[19] = tmax upon peroral administration of 10.0 mg/Kg dose in dog; assay type: ADME, organism-based, Canis lupus familiaris; conditions: in vivo, po
[20] = Tested for t1/2 upon peroral administration of 10.0 mg/Kg dose in dog; assay type: ADME, organism-based, Canis lupus familiaris; conditions: in vivo, po
[21] = Bioavailability upon peroral administration of 10.0 mg/Kg dose in rat; assay type: ADME, organism-based; conditions: in vivo, po, read-out: Bioavailabiility
[22] = tmax upon peroral administration of 10.0 mg/Kg dose in rat; assay type: ADME, organism-based; conditions: in vivo, po

Row | SMILES | half-life [1] | bioavailability [2] | Vd [3] | clearance [4] | clearance [5] | Cmax [6] | Vd [7] | Cmax [8] | half-life [9] | half-life [10] | Ki [11] | IC50 [12] | IC90 [13] | IC90 [14] | IC90 [15] | IC90 [16] | CC50 [17] | IC90 [18] | Tmax [19] | half-life [20] | other results
1 | CC(C)(O)c1cccc(CN2C(=O)N(Cc3cccc(C(C)(C)O)c3)[C@H](Cc3ccccc3)[C@H](O)[C@@H](O)[C@H]2Cc2ccccc2)c1 | 1.2 h | < 4% | 3.04 L/kg | 31.8 mL/min/kg | 15.5 mL/min/kg | 240 ng/mL | 1.65 L/kg | 630 ng/mL | 1.03 h | 1.5 h | 0.067 nM | 15 nM | 72.2 nM | 84.3 nM | 5780 nM | 22.2 nM | 33400 nM | 33.7 nM | 0.42 h | 0.65 h | 
2 | O=C1N(Cc2cccc(CO)c2)[C@H](Cc2ccccc2)[C@H](O)[C@@H](O)[C@@H](Cc2ccccc2)N1Cc1cccc(CO)c1 |  |  | 9.8 L/kg | 103 mL/min/kg |  |  |  | 470 ng/mL | 1.1 h |  | 0.4 nM | 7.9 nM |  |  |  |  | 54700 nM | 38.8 nM |  |  | 
3 | O=C1N(Cc2ccc(CO)cc2)[C@H](Cc2ccccc2)[C@H](O)[C@@H](O)[C@@H](Cc2ccccc2)N1Cc1ccc(CO)cc1 [DMP-323] | 1.8 h | 38.4% | 6.36 L/kg | 119 mL/min/kg | 24.7 mL/min/kg | 1480 ng/mL | 2.28 L/kg | 450 ng/mL | 0.95 h | 1.5 h | 0.31 nM | 35.7 nM | 989 nM | 675 nM | 22000 nM | 95.6 nM | 67500 nM | 176 nM | 0.5 h | 1.08 h | bioavailability [21]: 27.1%; Tmax [22]: 0.25 h
4 | CC(C)(O)c1ccc(CN2C(=O)N(Cc3ccc(C(C)(C)O)cc3)[C@H](Cc3ccccc3)[C@H](O)[C@@H](O)[C@H]2Cc2ccccc2)cc1 |  |  |  |  |  |  |  |  |  |  | 2.2 nM |  |  |  |  |  | 39300 nM | 8040 nM |  |  | 
